Test results reported in patent US20240343738A1, “Method for preparing pranoprofen and composition comprising pranoprofen and impurity” (SHENYANG XINGQI PHARMACEUTICAL CO., LTD., priority 2021, published 2024).

Assay: Accelerated stability study of pranoprofen batches (impurity content by HPLC)
Assay type: physicochemical
Details: 40° C.±2° C., RH 75%±5%; for Maximum single impurity: maximum unknown single impurity
Procedure: In the present invention, unless otherwise specified, the accelerated experiment is carried out under the conditions of 40° C.±2° C. and RH75%±5% in accordance with the regulations in the “Technical Guidelines for Stability Research of Chemical Drugs”; preferably, an average value of 3 samples measured in parallel is taken.
In the present invention, unless otherwise specified, the content of each impurity or total impurities is measured by high performance liquid chromatography. Preferably, the chromatographic conditions comprise: using octadecylsilane-bonded silica gel as filler (5 μm, 250 mm×4.6 mm); using 0.05 mol/L sodium perchlorate aqueous solution-methanol (90:10, adding perchloric acid to adjust pH to 3.2) as mobile phase A, methanol as mobile phase B, following the gradient elution in Table 10, flow rate of 1.0 ml/min, column temperature of 40° C., detection wavelength of 275 nm.
In accordance with the relevant regulations in the “Technical Guidelines for Stability Research of Chemical Drugs”, the samples of the above three batches were taken and tested for 6 months under the conditions of 40° C.±2° C. and RH 75%±5%. And at the end of the 0th, 1st, 2nd, 3rd and 6th months of the experiment, the samples were taken for the detection of indicators.
The experiment was carried out according to the high performance liquid chromatography (the General Rule 0512 of the Chinese Pharmacopoeia, 2015 edition), in which octadecylsilane bonded silica gel was used as filler (5 μm, 250 mm×4.6 mm); 0.05 mol/L sodium perchlorate aqueous solution-methanol (90:10, adjusted to pH 3.2 by adding perchloric acid) was used as mobile phase A, methanol was used as mobile phase B, and gradient elution was carried out according to the table below, flow rate was 1.0 ml/min, column temperature was 40° C., and detection wavelength was 275 nm.
10 μl of the test solution was precisely taken and injected into the liquid chromatograph. If there were impurity peaks in the chromatogram of the test solution, a single impurity must not exceed 0.1%, and the sum of impurities must not exceed 0.5%.
The impurity objects to be detected were total impurity, impurity A, impurity C, impurity D, impurity L and maximum single impurity; and the detection conditions were the same as above.
Preparation of test solution: 50 mg of this product was taken, dissolved in a solvent (acetonitrile-water=1:1) and diluted to 50 ml to obtain the test solution.
Control stock solution of mixed impurities: 10.0 mg of each of impurities A, C, D, and L were weighed, respectively, and added to 10.0 ml volumetric flask, respectively, then added with methanol for dissolution and dilution to the mark, 1.0 ml of each of the above solutions was taken and added to 100.0 ml volumetric flask, then added with solvent for dilution to the mark to obtain the control stock solution of impurities.
Control solution of mixed impurities: 1.0 ml of the test solution was accurately taken, and added with solvent for dilution to 100.0 ml; 1.0 ml of the above solution was accurately taken, added with 1.0 ml of the control stock solution of mixed impurities, and added with solvent to 10.0 ml to obtain the control solution of mixed impurities.
Preparation of system suitability solution: 1.0 ml of the control stock solution of mixed impurities was accurately taken, and added with the test solution for dilution to 10 ml to obtain the system suitability solution.
Preparation of control solution: 1.0 ml of the test solution was taken, and added with solvent for dilution to 10.0 ml; 1.0 ml of the above solution was taken, and added with solvent for dilution to 100.0 ml to obtain the control solution.

Row | Impurity A (0th month) | Impurity D (0th month) | Impurity L (0th month) | Total impurities (0th month) | Impurity A (1st month after acceleration) | Impurity D (1st month after acceleration) | Impurity L (1st month after acceleration) | Total impurities (1st month after acceleration) | Impurity A (2nd month after acceleration) | Impurity D (2nd month after acceleration) | Impurity L (2nd month after acceleration) | Total impurities (2nd month after acceleration) | Impurity A (3rd month after acceleration) | Impurity D (3rd month after acceleration) | Impurity L (3rd month after acceleration) | Total impurities (3rd month after acceleration) | Impurity A (6th month after acceleration) | Impurity C (6th month after acceleration) | Impurity D (6th month after acceleration) | Impurity L (6th month after acceleration) | SMILES | also measured
1 | Impurity A: 0.05% | Impurity D: 0.02% | Impurity L: 0.02% | Total impurities: 0.09% | Impurity A: 0.03% | Impurity D: 0.02% | Impurity L: 0.01% | Total impurities: 0.06% | Impurity A: 0.04% | Impurity D: 0.02% | Impurity L: 0.01% | Total impurities: 0.07% | Impurity A: 0.06% | Impurity D: 0.01% | Impurity L: 0.02% | Total impurities: 0.08% | Impurity A: 0.06% | Impurity C 0.03% | Impurity D: 0.02% | Impurity L: 0.02% | CC(C(=O)O)c1ccc2c(c1)Cc1cccnc1O2 (stereo not drawn) [Compound 20190101, pranoprofen] | Total impurities (6th month after acceleration): Total impurities: 0.17%; Maximum single impurity (6th month after acceleration): impurity: 0.02%
2 | Impurity A: 0.07% | Impurity D: 0.02% | Impurity L: 0.01% | Total impurities: 0.10% | Impurity A: 0.07% | Impurity D: 0.03% | Impurity L: 0.01% | Total impurities: 0.11% | Impurity A: 0.07% | Impurity D: 0.02% | Impurity L: 0.01% | Total impurities: 0.10% | Impurity A: 0.07% | Impurity D: 0.02% | Impurity L: 0.02% | Total impurities: 0.11% | Impurity A: 0.10% | Impurity C 0.03% | Impurity D: 0.01% | Impurity L: 0.02% | CC(C(=O)O)c1ccc2c(c1)Cc1cccnc1O2 (stereo not drawn) [Compound 20190201, pranoprofen] | Total impurities (6th month after acceleration): Total impurities: 0.24%; Maximum single impurity (6th month after acceleration): impurity: 0.08%
3 | Impurity A: 0.02% | Impurity D: 0.02% | Impurity L: 0.01% | Total impurities: 0.05% | Impurity A: 0.05% | Impurity D: 0.01% | Impurity L: 0.02% | Total impurities: 0.06% | Impurity A: 0.04% | Impurity D: 0.02% | Impurity L: 0.01% | Total impurities: 0.07% | Impurity A: 0.04% | Impurity D: 0.02% | Impurity L: 0.01% | Total impurities: 0.07% | Impurity A: 0.09% | Impurity C 0.01% | Impurity D: 0.01% | Impurity L: 0.02% | CC(C(=O)O)c1ccc2c(c1)Cc1cccnc1O2 (stereo not drawn) [Compound 20190202, pranoprofen] | Total impurities (6th month after acceleration): Total impurities: 0.15%; Maximum single impurity (6th month after acceleration): impurity: 0.02%
